Data from patent US10300069B2, “Carbon monoxide-releasing molecules for therapeutic applications and methods of making and using thereof” (Georgia State University Research Foundation, Inc., priority 2014, dated 2019).

Experiments:
[1] = Completion time of reaction of TPCPD with cyclooctynes at 50 mM; type: physicochemical; conditions: 50 mM concentration
[2] = tested on: RAW cells; test: WST-1 cytotoxicity test on RAW cells; type: cell-based, mouse
Method: In order to assess the cytotoxic effect of the reactants, 1 and 6a, as well as product 31, on RAW cells, the cytotoxicity test WST-1 was performed to examine induction by TPCPD (1) and BCN (6a) over varying concentrations and periods of time (FIGS. 3A-3C).
Different concentrations of each molecule were assessed: from 0.78 to 100 μM for 1 and 31 and 7.8 to 1000 μM for 6a. Different time points were assessed (1 h, 4 h, 8 h and 24 h). Triton 0.1% was used as a positive control of cytotoxicity and the subsequent value was established as 100% of cytotoxicity.

[3] = MTT cytotoxicity test of mannose-modified reactants (FIG. 4)
Method: The cytotoxicity test, MTT assay, was performed to define the concentration using TPCPD-M (57, 1 mM) and BCN-M (61, 1 mM) (FIG. 4).

[4] = Intramolecular DARinv (CO release) in DMSO/PBS (7.4) at 37° C.; type: physicochemical
Source text: (§1) Then the reaction mixture was extracted with ethyl acetate, and the obtained organic layer was dried with anhydrous Na2SO4, filtered and concentrated.
Then the reaction mixture was extracted with ethyl acetate, and the obtained organic layer was dried with anhydrous Na2SO4.
as §1

[5] = tested on: TNF-α; test: LPS-induced accumulation of TNF-α by ELISA in RAW 264.7 culture supernatant; type: cell-based, mouse; conditions: tested separately (control)
Method: RAW264.7 cell were seeded in 6-well plates and incubated overnight. Cells were then stimulated with LPS (10 mg/mL) for 1 h. TPCPD (1) and BCN (6a) (different concentrations) were added to well after 1 hr LPS treatment (same for all wells). As a control, the product (31) was used at same concentration as the anti-inflammation test to confirm that the suppression of TNF-α is result of CO instead of the reagent (or product) themselves (compounds 1, 6a, and 31). TNF-α secretion in the medium was measured with an eBioscience kit (mouse TNF-α ELISA kit, eBioscience, San Diego, Calif., USA).
TNF-α is a major pro-inflammatory cytokine, mainly secreted from macrophages and dendritic cells. Its production is induced in vitro by stimulation with LPS. The accumulation of TNF-α was assessed by ELISA in the culture supernatant of the macrophage cell line, RAW 264.7 (FIG. 5). The cells were stimulated for 1 h and then co-treated by […] for 24 h. […] A 50% decrease of the LPS-induced accumulation of TNF-α was observed after co-treatment with TPCPD-M and BCN-M at the respective concentration of 1 mM+1 mM.
As a control, the effect of the TPCPD-M and BCN-M were tested separately (FIG. 5).

[6] = Water solubility of mannose-modified reactants; type: physicochemical
[7] = 8 h, within the concentration range studied

OCC1[C@H]2CCC#CCC[C@@H]12 (stereo partly drawn) [BCN]
time in which the reaction with TPCPD finished [1]: ≤ 5 min | cytotoxicity [2, 7]: Neither 6a (FIG. 3B) and nor the product (FIG. 3C) displayed any sign of cytotoxicity | cytotoxicity ([2]; 24 h, 1 mM): 60%

NCC(=O)O.[C-]#[O+].[C-]#[O+].[C-]#[O+].[Cl][Ru] [CORM3, reference compound]
decrease in cell viability ([3]; 1 mM concentration): 30%

O=C1C(c2ccccc2)=C(c2ccccc2)C(c2ccccc2)=C1c1ccccc1 [TPCPD]
toxicity (cytotoxicity, Triton 0.1% = 100%) ([2]; 8 h, 50 μM): 44% | toxicity (cytotoxicity, Triton 0.1% = 100%) ([2]; 8 h, 100 μM): 49% | cytotoxicity ([2]; 24 h, concentrations higher than 12.5 μM): more than 50%

OC[C@@H]1[C@H]2CCc3c(c(-c4ccccc4)c(-c4ccccc4)c(-c4ccccc4)c3-c3ccccc3)CC[C@@H]12 [compound 31]
cytotoxicity [2, 7]: Neither 6a (FIG. 3B) and nor the product (FIG. 3C) displayed any sign of cytotoxicity | cytotoxicity ([2]; 24 h, within the concentration range tested): not cytotoxic

C#CCOc1ccccc1C1=C2C(=C(C(=O)N3CCOCC3)C1=O)c1cccc3cccc2c13 [compound 51]
incubation time after which the intramolecular DARinv reaction was finished [4]: 16 h

O=C(NCCOCCOCCOC1OC(CO)C(O)C(O)C1O)OCC1[C@H]2CCC#CCC[C@@H]12 (stereo partly drawn) [compound 61]
cytotoxicity (MTT) ([3]; 24 h of treatment, within 1 mM concentration): none of the compounds led to any cytotoxicity | inhibition of the LPS-induced accumulation of TNF-α [5]: do not lead to any inhibition | water solubility [6]: water soluble

C1#CCCCCCC1 [cyclooctyne]
time in which the reaction with TPCPD finished [1]: 15 min

fluorocyclooctyne [fluorocycolooctyne]
time after which the reaction with TPCPD had not reached completion [1]: > 24 h
